Data taken from patent publication US9328083B2, “2-aminated methylene or 2-esterified methylene tanshinone derivatives, and preparation method and application thereof” (HANGZHOU BENSHENG PHARMACEUTICAL CO., LTD., priority 2011, dated 2016).
Converted amounts (≈) assume the structure as drawn.

Tests used:
[1] = test system: U87 MG (malignant glioma cell); experiment: MTT growth inhibition of human solid tumor cells, 72 h; assay type: cell-based; conditions: Homo sapiens, U-87 MG, U87-MG, 72 h; for IC50: read-out: IC50; for IC90: read-out: IC90
Method: (§1) Hep-2 (laryngeal carcinoma), A549 (human lung cancer), CaES-17 (esophageal cancer cell), PC-3 (prostate cancer), CNE (nasopharyngeal carcinoma cell), and SK-OV-3 (ovarian cancer cell), all of which are purchased from China Center For Type Culture Collection; RKO (human colon adenocarcinoma cell), MGC 803 (human gastric cancer cell), MG63 (osteosarcoma) and U87 MG (malignant glioma cell), all of which are purchased from Fuxiang Bio-tech Co. Ltd., Shanghai, China; PANC-1 (pancreatic cancer), Hep G2 (human liver cancer cell), Becap37 (human breast cancer cell) and Hela (human cervical cancer cell), all of which are donated by Cancer Research Institute of Zhejiang University, China.
(§2) The standard sample of tanshinone I (TA) and the 2-aminated methylene or 2-esterified methylene tanshinone I derivatives of the present invention are sufficiently dissolved with dimethylsulfoxide to produce a stock solution of 10 mg/mL, which is refrigerated at 4° C. and stored in dark, and is diluted with a cell culture medium to the desired concentration prior to experimentation.
(§3) Obtaining 4000 well-growing human solid tumor cells and inoculating them into wells of a 96-well cell culture plate. The culture medium is DMEM High Glucose cell culture medium containing 10% fetal bovine serum. The plate is placed in a carbon dioxide cell incubator (5% CO2) at 37° C. and incubated for 24 hours. After adding the 2-aminated methylene or 2-esterified methylene tanshinone I derivatives of different concentrations and mixing uniformly, the plate is placed in a carbon dioxide cell incubator (5% CO2) at 37° C. and incubated for 72 hours. Then the viable cell concentration is determined by the MTT method.

[2] = test system: SK-OV-3 (ovarian cancer cell); experiment: as above; assay type: cell-based; conditions: Homo sapiens, SK-OV-3, 72 h; for IC50: read-out: IC50; for IC90: read-out: IC90
Method: as §1, §2, §3

[3] = test system: Becap37 (human breast cancer cell); experiment: as above; assay type: cell-based; conditions: Homo sapiens, Becap-37, 72 h; for IC50: read-out: IC50; for IC90: read-out: IC90
Method: as §1, §2, §3

[4] = test system: Hep-2 (laryngeal carcinoma); experiment: as above; assay type: cell-based; conditions: Homo sapiens, HEp-2, 72 h; for IC50: read-out: IC50; for IC90: read-out: IC90
Method: as §1, §2, §3

[5] = test system: Hep G2 (human liver cancer cell); experiment: as above; assay type: cell-based; conditions: Homo sapiens, HepG2, Hep G2, 72 h; for IC50: read-out: IC50; for IC90: read-out: IC90
Method: as §1, §2, §3

[6] = test system: CNE (nasopharyngeal carcinoma cell); experiment: as above; assay type: cell-based; conditions: Homo sapiens; for IC50: read-out: IC50; for IC90: read-out: IC90
Method: as §1, §2, §3

[7] = test system: PC-3 (prostate cancer); experiment: as above; assay type: cell-based; conditions: Homo sapiens, PC-3, 72 h; for IC50: read-out: IC50; for IC90: read-out: IC90
Method: as §1, §2, §3

[8] = test system: MGC 803 (human gastric cancer cell); experiment: as above; assay type: cell-based; conditions: Homo sapiens, MGC-803, 72 h; for IC50: read-out: IC50; for IC90: read-out: IC90
Method: as §1, §2, §3

[9] = test system: MG63 (osteosarcoma); experiment: as above; assay type: cell-based; conditions: Homo sapiens, MG-63, 72 h; for IC50: read-out: IC50; for IC90: read-out: IC90
Method: as §1, §2, §3

[10] = test system: CaES-17 (esophageal cancer cell); experiment: as above; assay type: cell-based; conditions: Homo sapiens, CaEs17, CaEs-17, 72 h; for IC50: read-out: IC50; for IC90: read-out: IC90
Method: as §1, §2, §3

[11] = test system: A549 (human lung cancer); experiment: as above; assay type: cell-based; conditions: Homo sapiens, A549, 72 h; for IC50: read-out: IC50; for IC90: read-out: IC90
Method: as §1, §2, §3

[12] = test system: Hela (human cervical cancer cell); experiment: as above; assay type: cell-based; conditions: Homo sapiens, HeLa, 72 h; for IC50: read-out: IC50; for IC90: read-out: IC90
Method: as §1, §2, §3

[13] = test system: RKO (human colon adenocarcinoma cell); experiment: as above; assay type: cell-based; conditions: Homo sapiens; for IC50: read-out: IC50; for IC90: read-out: IC90
Method: as §1, §2, §3

[14] = test system: PANC-1 (pancreatic cancer); experiment: as above; assay type: cell-based; conditions: Homo sapiens, PANC-1, 72 h; for IC50: read-out: IC50; for IC90: read-out: IC90
Method: as §1, §2, §3

[15] = test system: Kasumi-1 (acute myeloid leukemia M2 type, AML-M2); experiment: MTT growth inhibition of leukemia cells, 72 h; assay type: cell-based, human; conditions: Homo sapiens, Kasumi-1, 72 h; for IC50: read-out: IC50; for IC90: read-out: IC90
Excerpt: (§4) Leukemia cell lines: leukemia cell lines: K562/adr (drug-resistant, chronic myeloid leukemia, CML), NB4 (acute promyelocytic leukemia, AML), Kasumi-1 (acute myeloid leukemia M2 type, AML-M2), and Jurkat (acute lymphoblastic leukemia, ALL), all of which are donated by Cancer Research Institute of Zhejiang University, China; and H9 (acute lymphoblastic leukemia, ALL), which is purchased from China Center for Type Culture Collection (CCTCC).
as §2
(§5) Obtaining 6000 well-growing leukemia cells and inoculating them into wells of a 96-well cell culture plate. The culture medium is the RPMI-1640 cell culture medium containing 10% fetal bovine serum. After adding on the second day the 2-aminated methylene or 2-esterified methylene tanshinone I derivatives of different concentrations and mixing uniformly, placing the plate in a carbon dioxide cell incubator (5% CO2) at 37° C. and incubated for 72 hours. Then the viable cell concentration is determined by MTT method.

[16] = test system: K562/adr (drug-resistant, chronic myeloid leukemia, CML); experiment: MTT growth inhibition of leukemia cells, 72 h; assay type: cell-based, human; conditions: Homo sapiens, K562/Adr; for IC50: read-out: IC50; for IC90: read-out: IC90
Excerpt: as §4, §2, §5

[17] = test system: H9 (acute lymphoblastic leukemia, ALL); experiment: MTT growth inhibition of leukemia cells, 72 h; assay type: cell-based, human; conditions: Homo sapiens, H9, 72 h; for IC50: read-out: IC50; for IC90: read-out: IC90
Excerpt: as §4, §2, §5

[18] = test system: NB4 (acute promyelocytic leukemia, AML); experiment: MTT growth inhibition of leukemia cells, 72 h; assay type: cell-based, human; conditions: Homo sapiens, NB4, 72 h; for IC50: read-out: IC50; for IC90: read-out: IC90
Excerpt: as §4, §2, §5

[19] = test system: Jurkat (acute lymphoblastic leukemia, ALL); experiment: MTT growth inhibition of leukemia cells, 72 h; assay type: cell-based, human; conditions: Homo sapiens, 72 h; for IC50: read-out: IC50; for IC90: read-out: IC90
Excerpt: as §4, §2, §5

[20] = test system: RPMI8226 (multiple myeloma); experiment: MTT growth inhibition of multiple myeloma cells, 72 h; assay type: cell-based, human; conditions: Homo sapiens, RPMI 8226, 72 h; for IC50: read-out: IC50; for IC90: read-out: IC90
Method: Myeloma cell lines: RPMI8226 (multiple myeloma), purchased from Fuxiang Bio-tech Co. Ltd., Shanghai, China.
as §2
Obtaining 6000 well-growing myeloma cells as above and inoculating them into wells of a 96-well cell culture plate. The culture medium is the 1640 cell culture medium containing 10% fetal bovine serum. After adding the 2-aminated methylene or 2-esterified methylene tanshinone I derivatives of different concentrations and mixing uniformly, placing the plate in a carbon dioxide cell incubator (5% CO2) at 37° C. and incubated for 72 hours. Then the viable cell concentration is determined by MTT method.

With `Cc1c(CN(C)CCOC(=O)OC(C)C)oc2c1C(=O)C(=O)c1c-2ccc2c(C)cccc12` [BS-TA-63] the IC50 [1] was 15.8 µg/mL (≈ 35.2 µM), the IC90 [1] was over 16 µg/mL and the IC50 [2] was over 16 µg/mL. For the same molecule, the IC90 [2] was over 16 µg/mL, the IC50 [3] was 16 µg/mL (≈ 35.6 µM) and the IC90 [3] was over 16 µg/mL. For the same molecule, the IC50 [4] was 3.39 µg/mL (≈ 7.54 µM), the IC90 [4] was 22.4 µg/mL (≈ 49.9 µM) and the IC50 [5] was 15.7 µg/mL (≈ 34.8 µM). It also gave an IC90 [5] of over 16 µg/mL, an IC50 [6] of over 16 µg/mL and an IC90 [6] of over 16 µg/mL. The IC50 [7] was 5.83 µg/mL (≈ 13 µM), the IC90 [7] was 18.9 µg/mL (≈ 42 µM) and the IC50 [8] was 14.9 µg/mL (≈ 33.1 µM). The IC90 [8] was over 16 µg/mL, the IC50 [9] was 14.1 µg/mL (≈ 31.4 µM) and the IC90 [9] was over 16 µg/mL. It also gave an IC50 [10] of over 16 µg/mL, an IC90 [10] of over 16 µg/mL and an IC50 [11] of 6.5 µg/mL (≈ 14.5 µM). For the same molecule, the IC90 [11] was 23.4 µg/mL (≈ 52.1 µM), the IC50 [12] was 8.77 µg/mL (≈ 19.5 µM) and the IC90 [12] was over 16 µg/mL. For the same molecule, the IC50 [13] was 1.86 µg/mL (≈ 4.14 µM), the IC90 [13] was 17.6 µg/mL (≈ 39.2 µM) and the IC50 [14] was 4.92 µg/mL (≈ 10.9 µM). It also gave an IC90 [14] of 20.9 µg/mL (≈ 46.4 µM), an IC50 [15] of 1.48 µg/mL (≈ 3.29 µM) and an IC90 [15] of 3.89 µg/mL (≈ 8.65 µM). The IC50 [16] was 1.26 µg/mL (≈ 2.8 µM), the IC90 [16] was 4.6 µg/mL (≈ 10.2 µM) and the IC50 [17] was 3.75 µg/mL (≈ 8.34 µM). For the same molecule, the IC90 [17] was 15.3 µg/mL (≈ 34.1 µM), the IC50 [18] was 3.73 µg/mL (≈ 8.3 µM) and the IC90 [18] was 10.4 µg/mL (≈ 23.1 µM). It also gave an IC50 [19] of 3 µg/mL (≈ 6.67 µM), an IC90 [19] of 7.56 µg/mL (≈ 16.8 µM) and an IC50 [20] of 7.76 µg/mL (≈ 17.3 µM). For the same molecule, the IC90 [20] was 16 µg/mL (≈ 35.6 µM).

`Cc1c(CN(C)CCOC(=O)C2CCNCC2)oc2c1C(=O)C(=O)c1c-2ccc2c(C)cccc12` [BS-TA-64] gave an IC50 [1] of 1.16 µg/mL (≈ 2.44 µM), an IC90 [1] of 3.72 µg/mL (≈ 7.84 µM) and an IC50 [2] of 3.55 µg/mL (≈ 7.48 µM). The IC90 [2] was 7.76 µg/mL (≈ 16.4 µM), the IC50 [3] was 0.77 µg/mL (≈ 1.62 µM) and the IC90 [3] was 1.67 µg/mL (≈ 3.52 µM). The IC50 [4] was 1.67 µg/mL (≈ 3.52 µM), the IC90 [4] was 3.65 µg/mL (≈ 7.69 µM) and the IC50 [5] was 1.31 µg/mL (≈ 2.76 µM). For the same molecule, the IC90 [5] was 3.66 µg/mL (≈ 7.71 µM), the IC50 [6] was 1.8 µg/mL (≈ 3.79 µM) and the IC90 [6] was 3.8 µg/mL (≈ 8.01 µM). The IC50 [7] was 1.8 µg/mL (≈ 3.79 µM), the IC90 [7] was 4.15 µg/mL (≈ 8.74 µM) and the IC50 [8] was 0.85 µg/mL (≈ 1.79 µM). It also gave an IC90 [8] of 3.24 µg/mL (≈ 6.83 µM), an IC50 [9] of 0.82 µg/mL (≈ 1.73 µM) and an IC90 [9] of 2.16 µg/mL (≈ 4.55 µM). It also gave an IC50 [10] of 0.88 µg/mL (≈ 1.85 µM), an IC90 [10] of 1.85 µg/mL (≈ 3.9 µM) and an IC50 [11] of 1.4 µg/mL (≈ 2.95 µM). For the same molecule, the IC90 [11] was 4.46 µg/mL (≈ 9.4 µM), the IC50 [12] was 2.16 µg/mL (≈ 4.55 µM) and the IC90 [12] was 3.9 µg/mL (≈ 8.22 µM). It also gave an IC50 [13] of 0.29 µg/mL (≈ 0.611 µM), an IC90 [13] of 5.56 µg/mL (≈ 11.7 µM) and an IC50 [14] of 0.71 µg/mL (≈ 1.5 µM). The IC90 [14] was 5.07 µg/mL (≈ 10.7 µM), the IC50 [15] was 0.33 µg/mL (≈ 0.695 µM) and the IC90 [15] was 0.7 µg/mL (≈ 1.48 µM). The IC50 [16] was 0.84 µg/mL (≈ 1.77 µM), the IC90 [16] was 2.82 µg/mL (≈ 5.94 µM) and the IC50 [17] was 0.59 µg/mL (≈ 1.24 µM). It also gave an IC90 [17] of 1.63 µg/mL (≈ 3.43 µM), an IC50 [18] of 0.25 µg/mL (≈ 0.527 µM) and an IC90 [18] of 0.87 µg/mL (≈ 1.83 µM). It also gave an IC50 [19] of 0.54 µg/mL (≈ 1.14 µM), an IC90 [19] of 1.92 µg/mL (≈ 4.05 µM) and an IC50 [20] of 0.4 µg/mL (≈ 0.843 µM). For the same molecule, the IC90 [20] was 0.92 µg/mL (≈ 1.94 µM).
